Values belong to the compound of their own block, whether it stands above or below them.
What was measured:
[1] = physiological concentrations observed in patients; cited from earlier work
[2] = tested on: cancer organoid WCB123LU; assay: Regorafenib dose-response in 384-well LVM suspension culture, CellTitre-Glo 3D viability assay; type: cell-based; settings: Homo sapiens, 168 h, 7 days drug, 3% Matrigel, read-out: Mean ED50
Procedure: (§1) Organoids were digested with TrypLE Express enzyme at 37° C. for 15-20 min. Digestion was terminated in 1% BSA in DMEM/F12 and fragments were collected by centrifugation. Pellets were resuspended in culture medium, dissociated with a 26 G needle and filtered through a 40 μm cell strainer (Bio-Strategy, BDAA352340) to produce a single cell suspension. Live cells were counted using a hemocytometer and trypan blue staining. Single cells (3000 cells in 60 μl/well) were suspended in culture medium with 3% Matrigel, penicillin-streptomycin, normocin and 10 μM Y27632 and seeded in 384-well optical plates (Thermo Fisher Scientific, NUN242764) using a MANTIS® liquid handling robot (Formulatrix), and established for 3 days prior to drug addition. For plate uniformity studies, 1 μM bortezomib (Selleck, S1013) was used as the positive control, and 0.5% DMSO (Sigma, D2650) was used as a negative vehicle control. For the drug-dose response curves, regorafenib (Selleck, S1178) was used in a 9 point 4-fold titration series starting at 50 μM. All compound plates were prepared using a JANUS liquid handling robot (PerkinElmer) and stamped into 384-well plates using an integrated PinTool addition accessory (PerkinElmer).
(§2) PDTOs were imaged every 24 h for 7 days by bright-field microscopy as z-stacks on an automated Eclipse Ti2 Inverted Microscope System with an integrated tissue culture incubator (Nikon). 384-well images were captured using a 4× dry objective and Nikon Eclipse Ti2 software with a 25 μm Z-stack over a range of 500 μm. On day 7, 20μl CellTiter-Glo 3D reagent (Promega, G9683) was added using the MANTIS® liquid handling robot, plates were shaken at 1000 rpm for 30 mins at room temperature and luminescence measured using an EnVision plate reader (PerkinElmer).
(§3) For comparison of uniformity of regorafenib dose response curves between imaging and CellTitreGlo 3D data, response curves were fitted using a 4-parameter log-logistic function to percent viability data.
(§4) Plate uniformity in the 384-well format was evaluated for maximum (Max) signals, minimum (Min) signals, and drug dose-dependent midpoint (Mid) signals (FIG. 15c-f). To determine Max signals, organoids were established for 3 days, treated with 0.5% DMSO (vehicle control) using a JANUS Automated Liquid Handling Workstation with a 384 pin tool, and incubated for 7 days. […] To evaluate dose-dependent Mid signals, regorafenib was titrated across each half of the assay plate in a 9-step, 4-fold dilution series starting from 50 μM, generating a total of 24 drug dose-response curves. Organoid viability was determined by both image analysis and CellTiter-Glo 3D luminescence measurements. Mean organoid size and luminescence signals were visualized as heatmaps for each plate and plotted by wells for each plate row from left to right or as drug dose-response curves.

[3] = tested on: cancer organoid WCB088T; assay: as above; type: cell-based; settings: Homo sapiens, 168 h, 7 days drug, 3% Matrigel, read-out: Mean ED50
Procedure: as §1, §2, §3, §4

[4] = tested on: cancer organoid WCB024T; assay: as above; type: cell-based; settings: Homo sapiens, 168 h, 7 days drug, 3% Matrigel, read-out: Mean ED50
Procedure: as §1, §2, §3, §4

[5] = tested on: cancer organoid WCB123LU; assay: Regorafenib dose-response in 384-well LVM suspension culture, image analysis (mean organoid size); type: cell-based; settings: Homo sapiens, 168 h, imaging, 7 days drug, 3% Matrigel, read-out: Mean ED50
Procedure: as §1, §2
(§5) For image analysis, flattening of Z-stack bright-field images, removal of background debris and selection of organoids were performed using ImageJ software (NIH Image). The projection of z-stack images onto a single in-focus image was carried out using the Extended Depth of Field (EDF) plugin in “easy mode”, with the parameter quality=′1′ and topology=1′. Processed images were exported as high-quality tiff files. Background debris removal was performed by with a series of steps including Subtract Background, Enhance Local Contrast (CLAHE), set AutoThreshold, set Black Background, and Convert to Mask. Organoid selection and feature extraction were achieved using sequential Analyze Particles, Invert LUT, Fill Holes, Watershed, Set Measurements and Analyze Particles steps. Features of selected organoids were exported as text files for determination of mean organoid size.
as §3, §4

[6] = tested on: cancer organoid WCB088T; assay: as above; type: cell-based; settings: Homo sapiens, 168 h, imaging, 7 days drug, 3% Matrigel, read-out: Mean ED50
Procedure: as §1, §2, §5, §3, §4

[7] = tested on: cancer organoid WCB024T; assay: as above; type: cell-based; settings: Homo sapiens, 168 h, imaging, 7 days drug, 3% Matrigel, read-out: Mean ED50
Procedure: as §1, §2, §5, §3, §4

[8] = tested on: mitochondrial function; settings: Weng, Z. et al. (2015) Toxicology 327, 10-21; cited from earlier work
[9] = tested on: colorectal cancer organoids; assay: Inhibition of colorectal cancer organoid growth by bortezomib (cell killing control); type: cell-based, human; settings: at 1 μM; three cancer organoids; image analysis and CellTitreGlo 3D (FIG. 17)
Procedure: The bortezomib concentration of 1 um was selected as positive (killing) control, indicated by the dashed red line.
Organoids were digested with TrypLE Express enzyme at 37° C. for 15-20 min. Digestion was terminated in 1% BSA in DMEM/F12 and fragments were collected by centrifugation. Pellets were resuspended in culture medium, dissociated with a 26 G needle and filtered through a 40 μm cell strainer (Bio-Strategy, BDAA352340) to produce a single cell suspension. Live cells were counted using a hemocytometer and trypan blue staining. Single cells (3000 cells in 60 μl/well) were suspended in culture medium with 3% Matrigel, penicillin-streptomycin, normocin and 10 μM Y27632 and seeded in 384-well optical plates (Thermo Fisher Scientific, NUN242764) using a MANTIS® liquid handling robot (Formulatrix), and established for 3 days prior to drug addition. […]
Plate uniformity in the 384-well format was evaluated for maximum (Max) signals, minimum (Min) signals, and drug dose-dependent midpoint (Mid) signals (FIG. 15c-f). […] Organoid viability was determined by both image analysis and CellTiter-Glo 3D luminescence measurements. Mean organoid size and luminescence signals were visualized as heatmaps for each plate and plotted by wells for each plate row from left to right or as drug dose-response curves.

Compound: O=c1[nH]cc(F)c(=O)[nH]1 [5-FU, 5-fluorouracil]
Cmax [1]: ~7.5 µM

EC50 ([2]; Mid (Left) plate half): 1010 nM
EC50 ([2]; Mid (Right) plate half): 1100 nM
EC50 ([3]; Mid (Left) plate half): 1980 nM
EC50 ([3]; Mid (Right) plate half): 3410 nM
EC50 ([4]; Mid (Left) plate half): 3690 nM
EC50 ([4]; Mid (Right) plate half): 5150 nM
EC50 ([5]; Mid (Left) plate half): 1230 nM
EC50 ([5]; Mid (Right) plate half): 1560 nM
EC50 ([6]; Mid (Left) plate half): 6090 nM
EC50 ([6]; Mid (Right) plate half): 10200 nM
EC50 ([7]; Mid (Left) plate half): 1540 nM
EC50 ([7]; Mid (Right) plate half): 2280 nM
Compound: CNC(=O)c1cc(Oc2ccc(NC(=O)Nc3ccc(Cl)c(C(F)(F)F)c3)c(F)c2)ccn1 [regorafenib]
effect on mitochondrial function and cellular ATP levels [8]: impair mitochondrial function and decrease cellular ATP levels
Cmax [1]: ~7.3 µM

Compound: O=C1[O][Pt]2([NH][C@@H]3CCCC[C@H]3[NH]2)[O]C1=O [oxaliplatin]
Cmax [1]: ~5 µM

Compound: CC(C)C[C@H](NC(=O)[C@H](Cc1ccccc1)NC(=O)c1cnccn1)B(O)O [bortezomib]
growth inhibition (cell killing control) [9]: complete growth inhibition

Compound: CCc1c2c(nc3ccc(O)cc13)-c1cc3c(c(=O)n1C2)COC(=O)[C@]3(O)CC [SN-38]
Cmax [1]: ~0.14 µM

Compound: TAS-102
Cmax [1]: ~18.2 µM

Reference: patent US20230029554A1, “ORGANOID CULTURES” (THE WALTER AND ELIZA HALL INSTITUTE OF MEDECAL RESEARCH, priority 2019, published 2023)
